Laboratory results taken from patent US12404262B2 (priority 2021, dated 2025).

Conditions: 1.0% DMSO, 24-hour incubation at ambient temperature, maximum theoretical 100 μM; for pH 2 solubility: 0.1N HCl, first value of the cell; for pH 7 solubility: 1×PBS buffer (pH 7.4), second value of the cell

| SMILES | pH 2 solubility | pH 7 solubility |
| --- | --- | --- |
| CC(C)(C#Cc1ccc(-c2ccc(Cl)c3c(N(C(=O)OCCCCCO)S(C)(=O)=O)nn(CC(F)(F)F)c23)c([C@H](Cc2cc(F)cc(F)c2)NC(=O)Cn2nc(C(F)(F)F)c3c2C(F)(F)[C@@H]2C[C@H]32)n1)S(C)(=O)=O [Compound 103, 5-hydroxypentyl (4-chloro-7-(2-((S)-1-(2-((3bS,4aR)-5,5-difluoro-3-(trifluoromethyl)-3b,4,4a,5-tetrahydro-1H-cyclopropa[3,4]cyclopenta[1,2-c]pyrazol-1-yl)acetamido)-2-(3,5-difluorophenyl)ethyl)-6-(3-methyl-3-(methylsulfonyl)but-1-yn-1-yl)pyridin-3-yl)-1-(2,2,2-trifluoroethyl)-1H-indazol-3-yl)(methylsulfonyl)carbamate] | 1/1 μM | 1/1 μM |
| CC(C)(COP(=O)(O)O)C(=O)OCN(c1nn(CC(F)(F)F)c2c(-c3ccc(C#CC(C)(C)S(C)(=O)=O)nc3[C@H](Cc3cc(F)cc(F)c3)NC(=O)Cn3nc(C(F)(F)F)c4c3C(F)(F)[C@@H]3C[C@H]43)ccc(Cl)c12)S(C)(=O)=O [Compound 25, (N-(4-chloro-7-(2-((S)-1-(2-((3bS,4aR)-5,5-difluoro-3-(trifluoromethyl)-3b,4,4a,5-tetrahydro-1H-cyclopropa[3,4]cyclopenta[1,2-c]pyrazol-1-yl)acetamido)-2-(3,5-difluorophenyl)ethyl)-6-(3-methyl-3-(methylsulfonyl)but-1-yn-1-yl)pyridin-3-yl)-1-(2,2,2-trifluoroethyl)-1H-indazol-3-yl)methylsulfonamido)methyl 2,2-dimethyl-3-(phosphonooxy)propanoate] | 1 μM | 73 μM |
| CC(C)(C#Cc1ccc(-c2ccc(Cl)c3c(N(C(=O)O[C@H](C(=O)O)[C@H](O)C(=O)O)S(C)(=O)=O)nn(CC(F)(F)F)c23)c([C@H](Cc2cc(F)cc(F)c2)NC(=O)Cn2nc(C(F)(F)F)c3c2C(F)(F)[C@@H]2C[C@H]32)n1)S(C)(=O)=O [Compound 118, (2S,3S)-2-(((4-chloro-7-(2-((S)-1-(2-((3bS,4aR)-5,5-difluoro-3-(trifluoromethyl)-3b,4,4a,5-tetrahydro-1H-cyclopropa[3,4]cyclopenta[1,2-c]pyrazol-1-yl)acetamido)-2-(3,5-difluorophenyl)ethyl)-6-(3-methyl-3-(methylsulfonyl)but-1-yn-1-yl)pyridin-3-yl)-1-(2,2,2-trifluoroethyl)-1H-indazol-3-yl)(methylsulfonyl)carbamoyl)oxy)-3-hydroxysuccinic acid] | 1/1 μM | 1/1 μM |
| CC(C)(C#Cc1ccc(-c2ccc(Cl)c3c(N(C(=O)OCCCO)S(C)(=O)=O)nn(CC(F)(F)F)c23)c([C@H](Cc2cc(F)cc(F)c2)NC(=O)Cn2nc(C(F)(F)F)c3c2C(F)(F)[C@@H]2C[C@H]32)n1)S(C)(=O)=O [Compound 97, 3-hydroxypropyl (4-chloro-7-(2-((S)-1-(2-((3bS,4aR)-5,5-difluoro-3-(trifluoromethyl)-3b,4,4a,5-tetrahydro-1H-cyclopropa[3,4]cyclopenta[1,2-c]pyrazol-1-yl)acetamido)-2-(3,5-difluorophenyl)ethyl)-6-(3-methyl-3-(methylsulfonyl)but-1-yn-1-yl)pyridin-3-yl)-1-(2,2,2-trifluoroethyl)-1H-indazol-3-yl)(methylsulfonyl)carbamate] | 1 μM | 2 μM |
| CC(C)(CO)NC(=O)N(c1nn(CC(F)(F)F)c2c(-c3ccc(C#CC(C)(C)S(C)(=O)=O)nc3[C@H](Cc3cc(F)cc(F)c3)NC(=O)Cn3nc(C(F)(F)F)c4c3C(F)(F)[C@@H]3C[C@H]43)ccc(Cl)c12)S(C)(=O)=O [Compound 39, N—((S)-1-(3-(4-chloro-3-(N-((1-hydroxy-2-methylpropan-2-yl)carbamoyl)methylsulfonamido)-1-(2,2,2-trifluoroethyl)-1H-indazol-7-yl)-6-(3-methyl-3-(methylsulfonyl)but-1-yn-1-yl)pyridin-2-yl)-2-(3,5-difluorophenyl)ethyl)-2-((3bS,4aR)-5,5-difluoro-3-(trifluoromethyl)-3b,4,4a,5-tetrahydro-1H-cyclopropa[3,4]cyclopenta[1,2-c]pyrazol-1-yl)acetamide] | 1 μM | 2 μM |

Other lines, results leading:

| pH 2 solubility | pH 7 solubility | SMILES |
| --- | --- | --- |
| 1 μM | 2 μM | CN(CCO)C(=O)N(c1nn(CC(F)(F)F)c2c(-c3ccc(C#CC(C)(C)S(C)(=O)=O)nc3[C@H](Cc3cc(F)cc(F)c3)NC(=O)Cn3nc(C(F)(F)F)c4c3C(F)(F)[C@@H]3C[C@H]43)ccc(Cl)c12)S(C)(=O)=O [Compound 50, N—((S)-1-(3-(4-chloro-3-(N-((2-hydroxyethyl)(methyl)carbamoyl)methylsulfonamido)-1-(2,2,2-trifluoroethyl)-1H-indazol-7-yl)-6-(3-methyl-3-(methylsulfonyl)but-1-yn-1-yl)pyridin-2-yl)-2-(3,5-difluorophenyl)ethyl)-2-((3bS,4aR)-5,5-difluoro-3-(trifluoromethyl)-3b,4,4a,5-tetrahydro-1H-cyclopropa[3,4]cyclopenta[1,2-c]pyrazol-1-yl)acetamide] |
| 1 μM | 100 μM | CC(C)(C#Cc1ccc(-c2ccc(Cl)c3c(N(C(=O)OCCCOP(=O)(O)O)S(C)(=O)=O)nn(CC(F)(F)F)c23)c([C@H](Cc2cc(F)cc(F)c2)NC(=O)Cn2nc(C(F)(F)F)c3c2C(F)(F)[C@@H]2C[C@H]32)n1)S(C)(=O)=O [Compound 98, 3-(phosphonooxy)propyl (4-chloro-7-(2-((S)-1-(2-((3bS,4aR)-5,5-difluoro-3-(trifluoromethyl)-3b,4,4a,5-tetrahydro-1H-cyclopropa[3,4]cyclopenta[1,2-c]pyrazol-1-yl)acetamido)-2-(3,5-difluorophenyl)ethyl)-6-(3-methyl-3-(methylsulfonyl)but-1-yn-1-yl)pyridin-3-yl)-1-(2,2,2-trifluoroethyl)-1H-indazol-3-yl)(methylsulfonyl)carbamate] |
| 2 μM | 21 μM | CC(C)(C#Cc1ccc(-c2ccc(Cl)c3c(N(C(=O)CCN4CCNCC4)S(C)(=O)=O)nn(CC(F)(F)F)c23)c([C@H](Cc2cc(F)cc(F)c2)NC(=O)Cn2nc(C(F)(F)F)c3c2C(F)(F)[C@@H]2C[C@H]32)n1)S(C)(=O)=O [Compound 9, N-(4-chloro-7-(2-((S)-1-(2-((3bS,4aR)-5,5-difluoro-3-(trifluoromethyl)-3b,4,4a,5-tetrahydro-1H-cyclopropa[3,4]cyclopenta[1,2-c]pyrazol-1-yl)acetamido)-2-(3,5-difluorophenyl)ethyl)-6-(3-methyl-3-(methylsulfonyl)but-1-yn-1-yl)pyridin-3-yl)-1-(2,2,2-trifluoroethyl)-1H-indazol-3-yl)-N-(methylsulfonyl)-3-(piperazin-1-yl)propanamide] |
| 72 μM | 24 μM | CC(C)(C#Cc1ccc(-c2ccc(Cl)c3c(N(C(=O)NCCN4CCN(C(=N)N)CC4)S(C)(=O)=O)nn(CC(F)(F)F)c23)c([C@H](Cc2cc(F)cc(F)c2)NC(=O)Cn2nc(C(F)(F)F)c3c2C(F)(F)[C@@H]2C[C@H]32)n1)S(C)(=O)=O [Compound 74, N—((S)-1-(3-(3-(N-((2-(4-carbamimidoylpiperazin-1-yl)ethyl)carbamoyl)methylsulfonamido)-4-chloro-1-(2,2,2-trifluoroethyl)-1H-indazol-7-yl)-6-(3-methyl-3-(methylsulfonyl)but-1-yn-1-yl)pyridin-2-yl)-2-(3,5-difluorophenyl)ethyl)-2-((3bS,4aR)-5,5-difluoro-3-(trifluoromethyl)-3b,4,4a,5-tetrahydro-1H-cyclopropa[3,4]cyclopenta[1,2-c]pyrazol-1-yl)acetamide] |
| 10/10 μM | 10/10 μM | CC(C)(C#Cc1ccc(-c2ccc(Cl)c3c(N(C(=O)C(=O)N[C@@H](CC(=O)O)C(=O)O)S(C)(=O)=O)nn(CC(F)(F)F)c23)c([C@H](Cc2cc(F)cc(F)c2)NC(=O)Cn2nc(C(F)(F)F)c3c2C(F)(F)[C@@H]2C[C@H]32)n1)S(C)(=O)=O [Compound 12, (2-(N-(4-chloro-7-(2-((S)-1-(2-((3bS,4aR)-5,5-difluoro-3-(trifluoromethyl)-3b,4,4a,5-tetrahydro-1H-cyclopropa[3,4]cyclopenta[1,2-c]pyrazol-1-yl)acetamido)-2-(3,5-difluorophenyl)ethyl)-6-(3-methyl-3-(methylsulfonyl)but-1-yn-1-yl)pyridin-3-yl)-1-(2,2,2-trifluoroethyl)-1H-indazol-3-yl)methylsulfonamido)-2-oxoacetyl)-L-aspartic acid] |
| 50 μM | 3 μM | CN1CCN(CC(=O)N(c2nn(CC(F)(F)F)c3c(-c4ccc(C#CC(C)(C)S(C)(=O)=O)nc4[C@H](Cc4cc(F)cc(F)c4)NC(=O)Cn4nc(C(F)(F)F)c5c4C(F)(F)[C@@H]4C[C@H]54)ccc(Cl)c23)S(C)(=O)=O)CC1 [Compound 6, (N-(4-chloro-7-(2-((S)-1-(2-((3bS,4aR)-5,5-difluoro-3-(trifluoromethyl)-3b,4,4a,5-tetrahydro-1H-cyclopropa[3,4]cyclopenta[1,2-c]pyrazol-1-yl)acetamido)-2-(3,5-difluorophenyl)ethyl)-6-(3-methyl-3-(methylsulfonyl)but-1-yn-1-yl)pyridin-3-yl)-1-(2,2,2-trifluoroethyl)-1H-indazol-3-yl)-2-(4-methylpiperazin-1-yl)-N-(methylsulfonyl)acetamide)] |
| 9 μM | 10 μM | CC(C)(C#Cc1ccc(-c2ccc(Cl)c3c(N(C(=O)OCC(=O)O)S(C)(=O)=O)nn(CC(F)(F)F)c23)c([C@H](Cc2cc(F)cc(F)c2)NC(=O)Cn2nc(C(F)(F)F)c3c2C(F)(F)[C@@H]2C[C@H]32)n1)S(C)(=O)=O [Compound 117, 2-(((4-chloro-7-(2-((S)-1-(2-((3bS,4aR)-5,5-difluoro-3-(trifluoromethyl)-3b,4,4a,5-tetrahydro-1H-cyclopropa[3,4]cyclopenta[1,2-c]pyrazol-1-yl)acetamido)-2-(3,5-difluorophenyl)ethyl)-6-(3-methyl-3-(methylsulfonyl)but-1-yn-1-yl)pyridin-3-yl)-1-(2,2,2-trifluoroethyl)-1H-indazol-3-yl)(methylsulfonyl)carbamoyl)oxy)acetic acid] |
